Laboratory results as given in patent US20250352555A1, “METHOD OF INCREASING IMMUNE CELL ACTIVATION AND/OR TREATING CANCER USING DIBENZOXAZEPINONES” (VASCULAR THERAPEUTICS PTY LTD, priority 2022, published 2025).
Several values for one entry are separate records, joined by “and”; a condition that tells them apart may be missing. Equal values may be shown once. Read-outs that look alike come from different tables or passages of the source.

Test: Systemic pharmacokinetics after oral (PO) and intraperitoneal (IP) administration
Format: in vivo
Conditions: male, CD-1, mouse, plasma, 30 mg/kg, male CD-1 mice; for bioavailability: PO, read-out: relative bioavailability
Protocol: Systemic pharmacokinetics after oral (PO) and intraperitoneal (IP) administration. Male CD-1 mice were injected with BT2 in Formulation 1, Formulation 2 or Formulation 3 (Table 4) and blood was collected after 0.083, 0.25, 0.5, 1, 2, 4, 8 and 24 h. BT2 was given PO or IP injection.
Approximately 110 μl blood samples were collected (n=3/time point, 3 mice/group) into tubes with EDTA-K2 anticoagulant. All blood samples were put on wet ice prior to centrifuging (6000 g, 4° C. for 5 min) to obtain plasma, which were stored at −70° C. or dry ice until analysis.
Plasma samples were analysed by LC-MS/MS (SCIEX ExionLC)-MS/MS (Triple Quad 6500+ With Analyst 1.7.1 AB Sciex). HPLC was performed using a Waters Acquity UPLC HSS T3 1.8 μm, 2.1×50 mm column with Mobile Phase A: H2O-0.025% FA+1 mM NH4OAc and Mobile Phase B: MeOH-0.025% FA+1 mM NH4OAc and injection volume 3 μl.
LC-MS/MS detection was performed for BT2 in plasma of mice given BT2 either by oral gavage (PO) or intraperitoneal (IP) injection. Plasma samples were processed (protein precipitation method used) and injected into LC-MS/MS (SCIEX ExionLC coupled with Triple Quad 6500+).

- AUC(0-t) (ip, Formulation 1 (G2)): 1440 ng·h/mL and 4.41 µM·h
- Cmax (ip, Formulation 1 (G2)): 1070 ng/mL and 3.29 µM
- Tmax (ip, Formulation 1 (G2)): 15 min
- half-life (ip, Formulation 1 (G2)): 523 min
- AUC(0-t) (ip, Formulation 3 (G6)): 1180 ng·h/mL and 3.62 µM·h
- Cmax (ip, Formulation 3 (G6)): 2.59 µM and 846 ng/mL
- Tmax (ip, Formulation 3 (G6)): 30 min
- half-life (ip, Formulation 3 (G6)): 505 min
- bioavailability (po, Formulation 1 (G1)): 13.1%
- AUC(0-t) (po, Formulation 1 (G1)): 189 ng·h/mL and 0.579 µM·h
- Cmax (po, Formulation 1 (G1)): 177 nM and 57.9 ng/mL
- Tmax (po, Formulation 1 (G1)): 15 min
- bioavailability (po, Formulation 3 (G5)): 28.8%
- AUC(0-t) (po, Formulation 3 (G5)): 340 ng·h/mL and 1.04 µM·h
- Cmax (po, Formulation 3 (G5)): 53.7 ng/mL and 165 nM
- Tmax (po, Formulation 3 (G5)): 60 min
Compound: CCOC(=O)Nc1ccc2c(c1)C(=O)N(CC)c1ccccc1O2 [BT2, (10-ethyl-11-oxo-10,11-dihydro-dibenzo[b,f][1,4]oxazepin-2-yl)-carbamic acid ethyl ester]
